Where two headings read alike, the source gives them in different places.
What was measured:
S. aureus gyrase [1] = target: T1, S. aureus gyrase (Staphylococcus aureus, UniProt P0A0K8+P20831)
[2] = target: S. aureus gyrase-DNA cleavage complexes (Staphylococcus aureus, UniProt P0A0K8+P20831); test: Stability; conditions: 5 μM gepotidacin, 20-fold dilution into buffer lacking divalent metal ion
S. aureus gyrase [3] = target: T1, S. aureus gyrase; test: DNA cleavage competition assay, gepotidacin vs moxifloxacin; type: biochemical; conditions: 100 μM gepotidacin plus 25 μM moxifloxacin
[4] = tested on: negatively supercoiled pBR322 DNA; test: DNA cleavage control without gyrase; conditions: 200 μM gepotidacin, 3 h incubation, no gyrase

T1 sequence (P0A0K8 whole entry): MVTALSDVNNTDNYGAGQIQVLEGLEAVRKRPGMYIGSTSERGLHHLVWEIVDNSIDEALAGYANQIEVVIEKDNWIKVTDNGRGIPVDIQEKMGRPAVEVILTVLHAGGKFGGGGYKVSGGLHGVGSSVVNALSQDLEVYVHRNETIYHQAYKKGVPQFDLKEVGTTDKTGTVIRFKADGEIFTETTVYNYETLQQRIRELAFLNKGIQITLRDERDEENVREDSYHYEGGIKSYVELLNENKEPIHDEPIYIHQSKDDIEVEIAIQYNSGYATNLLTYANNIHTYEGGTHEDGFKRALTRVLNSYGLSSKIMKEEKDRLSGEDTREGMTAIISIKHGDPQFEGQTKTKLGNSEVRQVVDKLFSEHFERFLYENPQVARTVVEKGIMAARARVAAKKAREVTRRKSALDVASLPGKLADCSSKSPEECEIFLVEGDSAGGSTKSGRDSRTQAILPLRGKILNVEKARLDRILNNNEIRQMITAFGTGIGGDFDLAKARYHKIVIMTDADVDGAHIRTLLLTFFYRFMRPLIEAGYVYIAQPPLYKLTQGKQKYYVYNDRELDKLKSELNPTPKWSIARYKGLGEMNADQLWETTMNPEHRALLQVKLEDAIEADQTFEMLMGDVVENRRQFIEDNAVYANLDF
T1 sequence (P20831 whole entry): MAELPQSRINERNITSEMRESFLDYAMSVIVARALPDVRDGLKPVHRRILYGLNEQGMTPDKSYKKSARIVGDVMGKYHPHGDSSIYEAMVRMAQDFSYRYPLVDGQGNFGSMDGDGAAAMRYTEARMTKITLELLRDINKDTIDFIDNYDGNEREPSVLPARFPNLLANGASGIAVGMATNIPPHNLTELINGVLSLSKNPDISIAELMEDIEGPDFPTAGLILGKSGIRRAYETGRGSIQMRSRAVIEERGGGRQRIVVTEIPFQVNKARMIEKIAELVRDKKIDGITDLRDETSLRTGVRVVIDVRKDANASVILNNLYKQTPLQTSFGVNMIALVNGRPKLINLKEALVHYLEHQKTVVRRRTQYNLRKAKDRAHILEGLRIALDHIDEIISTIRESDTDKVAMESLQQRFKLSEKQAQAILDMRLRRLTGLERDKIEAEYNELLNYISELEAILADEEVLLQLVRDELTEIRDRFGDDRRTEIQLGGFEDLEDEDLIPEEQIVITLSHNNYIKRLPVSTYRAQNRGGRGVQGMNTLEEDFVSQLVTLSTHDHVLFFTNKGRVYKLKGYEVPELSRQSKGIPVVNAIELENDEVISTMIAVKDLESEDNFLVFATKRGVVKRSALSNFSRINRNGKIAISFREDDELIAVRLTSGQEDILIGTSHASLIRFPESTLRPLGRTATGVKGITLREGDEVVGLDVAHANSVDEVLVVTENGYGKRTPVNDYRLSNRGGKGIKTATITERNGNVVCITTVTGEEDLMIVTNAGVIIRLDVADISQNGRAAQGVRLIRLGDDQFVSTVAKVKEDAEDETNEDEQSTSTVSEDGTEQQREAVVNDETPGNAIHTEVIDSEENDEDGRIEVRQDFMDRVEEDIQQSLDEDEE
S. aureus gyrase-DNA cleavage complexes, sequence (P20831 whole entry): as above
S. aureus gyrase-DNA cleavage complexes, sequence (P0A0K8 whole entry): as the sequence (P0A0K8 whole entry) above

Compound	fall in potency with positively vs negatively supercoiled substrates (S. aureus gyrase [1]; double-stranded breaks)	type of DNA breaks at high concentration (S. aureus gyrase [1]; 200 μM, time course 6 times longer than standard)	gyrase-mediated double-stranded DNA cleavage (S. aureus gyrase [1]; 1.5 mM ATP)	type of DNA breaks created (S. aureus gyrase [1]; 5 or 200 μM, negatively supercoiled DNA)	effect on double-stranded DNA cleavage in the presence of Ca2+ (S. aureus gyrase [1]; MgCl2 replaced by CaCl2, increasing gepotidacin concentrations)	gyrase-mediated double-stranded DNA breaks (S. aureus gyrase [1]; high gepotidacin concentration, long cleavage times, or presence of ATP)	levels of single-stranded breaks, positively vs negatively supercoiled plasmid (S. aureus gyrase [1]; lower with positively supercoiled plasmid)	single-stranded DNA breaks, share of the initial substrate (S. aureus gyrase [1]; negatively supercoiled plasmid, low micromolar concentrations)	gyrase-mediated double-stranded DNA breaks (S. aureus gyrase [1]; positively supercoiled DNA)	stability of gyrase-DNA cleavage complexes [2] [h]	drop in levels of moxifloxacin-induced double-stranded breaks (S. aureus gyrase [3])	DNA cleavage when gyrase was left out [4]
COc1c(N2C[C@@H]3CCCN[C@@H]3C2)c(F)cc2c(=O)c(C(=O)O)cn(C3CC3)c12 [moxifloxacin, reference compound]	~ 8 fold											
O=c1ccc2ncc(=O)n3c2n1C[C@H]3CN1CCC(NCc2cc3c(cn2)OCCC3)CC1 [Gepotidacin]		only single-stranded breaks were observed	no double-stranded DNA cleavage was observed	all of the breaks created in the presence of gepotidacin were single-stranded	coordinate decrease in levels of double-stranded DNA cleavage	No double-stranded breaks were observed	~ 2 fold	more than 30%	no double-stranded breaks were observed	> 4	~ 95%	no DNA cleavage was observed

Source: article PMC6461504 (ACS infectious diseases, 2019)
